Consider five molecules from US20230398135A1, “COMPOSITIONS INCLUDING CANNABINOID AND USE THEREOF IN THE MANUFACTURE OF A MEDICAMENT FOR THE TREATMENT OF INFLAMMATION IN A SUBJECT” (priority 2022, published 2023).

Experiment [1] addresses T1, COX-2 (Homo sapiens, UniProt P35354).
T1 construct: purchased BioVision Inc. (Mountain View, CA, USA)
T1 sequence (P35354 18-604): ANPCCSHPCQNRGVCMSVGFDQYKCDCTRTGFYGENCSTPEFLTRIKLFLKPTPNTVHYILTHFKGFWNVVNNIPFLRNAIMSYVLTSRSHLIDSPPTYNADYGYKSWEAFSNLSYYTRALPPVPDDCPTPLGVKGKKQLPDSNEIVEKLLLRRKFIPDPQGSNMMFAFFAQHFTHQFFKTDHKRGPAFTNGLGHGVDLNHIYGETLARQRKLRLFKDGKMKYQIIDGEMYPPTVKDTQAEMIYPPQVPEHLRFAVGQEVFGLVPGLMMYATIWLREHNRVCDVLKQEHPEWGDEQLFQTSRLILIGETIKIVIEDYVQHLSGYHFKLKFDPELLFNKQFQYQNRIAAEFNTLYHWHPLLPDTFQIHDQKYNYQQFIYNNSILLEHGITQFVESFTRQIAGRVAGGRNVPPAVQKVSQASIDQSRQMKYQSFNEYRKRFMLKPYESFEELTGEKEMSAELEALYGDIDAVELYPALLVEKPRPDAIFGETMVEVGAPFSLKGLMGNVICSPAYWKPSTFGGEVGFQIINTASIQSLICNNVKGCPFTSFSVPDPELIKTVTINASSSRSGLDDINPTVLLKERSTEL
Kind of experiment: fluorometric COX-2 inhibition assay (Cayman Chemical kit). The following applies: for inhibition at 50 µM: read-out: COX-2 Inhibition (%); for COX-2 inhibition corresponding to plateau (FIGS. 3A, 3B): after molar concentrations exceeded 10 μM; for COX-2 inhibitory effect (FIG. 1): used individually at 50 μM, 10 μM, 2 μM, 0.04 μM. In kind it is biochemical. On the procedure: FIG. 1 is a bar diagram illustrating COX-2 inhibitory effects of CBD and CBG used individually at different molar concentrations according to some embodiments of the present disclosure. Table 1 illustrates COX-2 inhibitory effects of some skincare active components used individually according to some embodiments of the present disclosure. The COX-2 inhibitory effects in FIG. 1 and Table 1 were determined using a fluorometric COX-2 inhibition kit from Cayman Chemical Company (Ann Arbor, Michigan, USA) according to the method of COX-2 inhibition assay as described elsewhere in the present disclosure.
Table 2 illustrates COX-2 inhibitory effects of exemplary compositions of CBD and CBG according to some embodiments of the present disclosure. The COX-2 inhibitory effects in Table 2 were determined using a fluorometric COX-2 inhibition kit from Cayman Chemical Company (Ann Arbor, Michigan, USA) according to the method of COX-2 inhibition assay as described elsewhere in the present disclosure. The compositions A, B, and C in Table 2 may be at 10 μM.
FIG. 2 is a bar diagram illustrating COX-2 inhibitory effects of CBD and CBG used individually and in combination at different molar concentrations according to some embodiments of the present disclosure. The COX-2 inhibitory effects in FIG. 1 and Table 1 were determined using a fluorometric COX-2 inhibition kit from Cayman Chemical Company (Ann Arbor, Michigan, USA) according to the method of COX-2 inhibition assay as described in the present disclosure. In FIG. 2. COMIX represents a composition (or mixture) of CBD, CBG, NMN, BAK, AGE Defense, and RC Bio. Concentrations of CBD, CBG, NMN, BAK, AGE Defense, and RC Bio in COMIX were 10 ug/mL, 2 ug/mL, 2 ug/mL, 2 ug/mL, 2 ug/mL, and 2 ug/mL, respectively. The COX-2 inhibitory effect of COMIX was measured for providing an assay basis for designing subsequent COX-2 inhibition assays. MIX′ represents a composition (or mixture) of CBD and CBG at a molar concentration ratio of 1:1. […] When a total CBD/CBG molar concentration of MIX′ was 0.5 μM, molar concentrations of CBD and CBG in MIX′ were 0.25 μM. Similarly, when a total CBD/CBG molar concentration of MIX′ was 1.0 μM, molar concentrations of CBD and CBG in MIX′were 0.5 μM; when a total CBD/CBG molar concentration of MIX′ was 5 μM, molar concentrations of CBD and CBG in MIX were 2.5 μM; when a total CBD/CBG molar concentration of MIX′ was 10 μM, molar concentrations of CBD and CBG in MIX′ were 5 μM; and when a total CBD/CBG molar concentration of MIX′ was 20 μM, molar concentrations of CBD and CBG in MIX′ were 10.0 μM.
(§1) Materials and methods: the inhibitory effects of test samples (e.g., CBD, CBG, BAK, Mix, a positive control, and/or other compounds and compositions described in the present disclosure) against COX-2 were measured by a fluorometric COX-2 inhibition kit from Cayman Chemicals (Ann Arbor, Michigan, USA) or BioVision Inc. (Mountain View, CA, USA) following the manufacturer's instructions. Briefly, a COX-2 enzyme was reconstituted with 110 μL of sterile distilled H2O and arachidonic acid was dissolved in 55 μL ethanol. COX cofactor was diluted with COX assay buffer for 200 times, and arachidonic acid and NaOH were mixed in a molar ratio of 1:1 before it was diluted for 10 times for further use. COX assay buffer (84 μL), COX probe (1 μL), diluted COX cofactor (2 μL), COX-2 enzyme (1 μL), and test samples (2 μL) were incubated in a 96-well plate at room temperature for 10 min. Next, diluted arachidonic acid/NaOH solution (10 μL) was added to each well of the 96-well plate to initiate the reaction.

Experiment [2] deals with T1, COX-2. Kind of experiment: fluorometric COX-2 inhibition assay (BioVision kit). In kind it is biochemical. The following applies: for COX-2 inhibitory effect compared with personal care ingredients (terpenes): all at 50 μM, FIGS. 4-6; for inhibition at 10 µM / inhibition at 50 µM: read-out: COX-2 Inhibition (%); for inhibition at 12.5 µM: read-out: COX-2 inhibitions (FIG. 5). On the procedure:
The COX-2 inhibitory effects in FIGS. 4-6 were determined using a fluorometric COX-2 inhibition kit from BioVision Inc. (Mountain View, CA, USA) according to the methods described in COX-2 inhibition assay. The personal care ingredients Lim, Lin, Ner, Myc, α-pin, β-car, and α-bis represent limonene, linalool, nerolidol, myrcene, alpha-pinene, beta-caryophyllene, and alpha-bisabolol, respectively. In FIGS. 5 and 6, MIX represents a composition (or mixture) of CBD, CBG, and BAK at a molar concentration ratio of 1:1:1. MIX 50 μM, MIX 25 μM, and 12.5 μM represent total CBD/CBG/BAK molar concentrations of MIX being 50 μM, 25 μM, and 12.5 μM, respectively. CBD 50 μM represents that CBD is used individually and a molar concentration of CBD is 50 μM.
as §1, with “reaction. The fluorescence of each well was recorded at an excitation wavelength of 535 nm and an emission wavelength of 587 nm with a kinetic mode for 10 min using a plate reader (SpectraMax® M2, Molecular Devices Corp., operated by SoftmaxPro® v.4.6 software, Sunnyvale, CA, USA). […] Two points (T1 and T2) in a linear range of a plot related to the recorded fluorescence were used to obtain corresponding fluorescence values (RFU1 and RFU2). Then, a slope for a sample was calculated by dividing a net ΔRFU (RFU2-RFU1) value by the time ΔT (T2-T1). An inhibition (%) of COX-2 of the sample was determined as the following equation: Inhibition (%)=((slope of control−slope of the sample)/slope of control)×100.” for “reaction.”

The test system of a further experiment is TNF-α. Kind of experiment: suppression of TNF-α in inflammatory model induced by lipopolysaccharides and nigericin. The experiment is classed as cell-based. The following applies: 20 μM; LPS and nigericin model. On the procedure:
(§2) FIGS. 7 and 8 are bar diagrams illustrating exemplary abilities of CBG, BAK, and a composition (i.e., Mix) of CBD, CBG, and BAK at a molar concentration of 1:1:1 to suppress activities of pro-inflammatory cytokines according to some embodiments of the present disclosure. In FIGS. 7 and 8, Model represents an inflammatory model that was induced by lipopolysaccharides and nigericin. The abilities/functions of CBG, BAK, and Mix to suppress pro-inflammatory cytokines in FIGS. 7 and 8 were measured at a total CBD/CBG/BAK molar concentration of 20 μM. An ability/function to suppress activity of a pro-inflammatory cytokine was reflected by a remaining concentration of the pro-inflammatory cytokine after the reaction. The greater the remaining concentration of the pro-inflammatory cytokine, the worse the ability to suppress activity of the pro-inflammatory cytokine.

In another experiment the test system is IL-1β. Put plainly: suppression of IL-1β in inflammatory model, cell level. In kind it is cell-based. The following applies: 20 μM; LPS and nigericin model. As for the experimental part:
as §2
FIG. 9 is a bar diagram illustrating exemplary abilities of a composition (i.e., Mix) of CBD, CBG, and BAK at a molar concentration of 1:1:1 at different molar concentrations to suppress activity of […] according to some embodiments of the present disclosure. In FIG. 9, Model represents an inflammatory model which was different from that in FIG. 8. […]

The nature of experiment [3]: antioxidant DPPH assay (free radical scavenging). The following applies: used individually. As for the experimental part:
In some embodiments, the composition may have an antioxidant activity/effect. FIG. 10 is a bar diagram illustrating antioxidant effects of CBD, CBG, and BAK used individually according to some embodiments of the present disclosure. In some embodiments, data in the bar diagram in FIG. 10 was determined (e.g., measured) according to an antioxidant DPPH (i.e., α, α-diphenyl-β-picrylhydrazyl) assay that was well known for the skills in the art. An antioxidant effect was reflected by free radical scavenging after the reaction. The greater the free radical scavenging, the better the antioxidant effect.

For the molecule `C=C[C@@](C)(/C=C/c1ccc(O)cc1)CCC=C(C)C` [BAK, bakuchiol], at COX-2 [1], the inhibition at 50 µM was 81.9%. In addition, on COX-2 [2], the “COX-2 inhibitory effect compared with personal care ingredients (terpenes)” value is given as “better COX-2 inhibitory effects than the personal care ingredients”, the inhibition at 10 µM was determined as 45%, the inhibition at 50 µM was found to be 67.3% and the inhibition at 12.5 µM was roughly 60%. Besides, the “remaining concentration of TNF-α versus Model (FIG. 7)” value in the experiment on TNF-α is given as “lower than the remaining concentration of TNF-α corresponding to Model”. The “remaining concentration of IL-1β versus Model (FIG. 8)” value with IL-1β is on record as “had an activity to suppress activity of IL-113”. For the same molecule, in experiment [3], the “antioxidant effect compared with the other compounds (FIG. 10)” value was “better antioxidant effect than CBG and CBG”; the “antioxidant effect, free radical scavenging (FIG. 10)” value is reported as “had an antioxidant effect”.
For the molecule `C=C(C)[C@@H]1CCC(C)=C[C@H]1c1c(O)cc(CCCCC)cc1O` [CBD, cannabidiol, reference compound], on COX-2 [1], the “COX-2 inhibition corresponding to plateau (FIGS. 3A, 3B)” value was “about 60%”; the inhibition at 50 µM is 71.9%; the “COX-2 inhibitory effect (FIG. 1)” value is reported as “had a COX-2 inhibitory effect”. Also, on COX-2 [2], the “COX-2 inhibitory effect compared with personal care ingredients (terpenes)” value is on record as “better COX-2 inhibitory effects than the personal care ingredients”, the inhibition at 10 µM was 42%, the inhibition at 50 µM amounted to 52.5% and the inhibition at 12.5 µM is roughly 60%. For the same molecule, the “antioxidant effect, free radical scavenging (FIG. 10)” value in experiment [3] is “had an antioxidant effect”.
Turning to `CCCCCc1cc(O)c(C/C=C(\C)CCC=C(C)C)c(O)c1` [CBG, cannabigerol], at COX-2 [1], the “COX-2 inhibition corresponding to plateau (FIGS. 3A, 3B)” value is given as “about 60%”; the inhibition at 50 µM amounted to 87.4%; the “COX-2 inhibitory effect (FIG. 1)” value is given as “had a COX-2 inhibitory effect”. Further, at COX-2 [2], the “COX-2 inhibitory effect compared with personal care ingredients (terpenes)” value is listed as “better COX-2 inhibitory effects than the personal care ingredients”, the inhibition at 10 µM was 51.9%, the inhibition at 50 µM is 65.7% and the inhibition at 12.5 µM was roughly 60%. In the experiment on TNF-α, the “remaining concentration of TNF-α versus Model (FIG. 7)” value is reported as “lower than the remaining concentration of TNF-α corresponding to Model”. The “remaining concentration of IL-1β versus Model (FIG. 8)” value in the experiment with IL-1β is listed as “had an activity to suppress activity of IL-113”. In addition, in experiment [3], the “antioxidant effect, free radical scavenging (FIG. 10)” value is given as “had an antioxidant effect”.
Consider `Cn1c(=O)c2c(ncn2C)n(C)c1=O` [Caffeine, caffeine, reference compound], for which the inhibition at 50 µM on COX-2 [1] worked out at 63.5%.
As to `NC(=O)c1ccc[n+]([C@@H]2O[C@H](COP(=O)([O-])O)[C@@H](O)[C@H]2O)c1` [NMN, nicotinamide mononucleotide], the “COX-2 Inhibition (%)” value at COX-2 [1] (compound used individually at 50 μM) was found to be 19.63%.
